Results reported in patent publication US6436980B1, “Peptidomimetic efflux pump inhibitors” (priority 1998, dated 2002).

Test system: Pseudomonas aeruginosa PAM1001
Assay: Checkerboard assay (broth microdilution): levofloxacin MIC in presence of efflux pump inhibitor
Type: cell-based
Experimental: Potentiation effect is observed by the reduction of the minimum inhibitory concentration of levofloxacin in the presence of the experimental efflux pump inhibitor. The activity of efflux pump inhibitors (EPI) in combination with fluoroquinolones, such as levofloxacin, is assessed by the checkerboard assay (Antimicrobial Combinations. In Antibiotics in Laboratory Medicine, Ed. Victor Lorian, M.D., Fourth edition, 1996, pp 333-338) using broth microdilution method performed as recommended by the NCCLS (National Committee for Clinical Laboratory Standards (NCCLS). 1997. Methods for Dilution of Antimicrobial Susceptibility Tests for Bacteria That Grow Aerobically—Fourth Edition; Approved Standard. NCCLS Document M7-A4, Vol 17 No.2). The test organism used is Pseudomonas aeruginosa PAM1001. […] The compounds tabulated below are representative of the described invention.
In this assay, multiple dilutions of two drugs, namely the EPI and levofloxacin, are being tested, alone and in combination, at concentrations equal to, above and below their respective minimal inhibitory concentrations (MICs). In the case of EPI, most of these compounds are devoid of intrinsic antimicrobial activity and are tested at the maximum concentration of 40 μg/mL. The MIC of levofloxacin against P. aeruginosa PAM1001 is 4 μg/mL.
The EPI tested are readily soluble in water and stock solutions are prepared at a final concentration of 2 mg/mL. Stock solutions are further diluted, according to the needs of a particular assay, in Mueller Hinton Broth (MHB). Stock solution can be stored at −80° C. Quinolones are solubilized according to the instructions of the manufacturers, at a concentration of 1 mg/mL. They are then further diluted in MB. Stock solution can be stored at −80° C.
The checkerboard assay is performed in microtiter plates. Levofloxacin is diluted in the x axis, each column containing a single concentration of levofloxacin. The EPI is diluted in the y axis, each row containing an equal concentration of EPI. The result of these manipulations is that each well of the microtiter plate contains a unique combination of concentrations of the two agents. Each EPI are tested independently.
The assay is performed in MHB with a final bacterial inoculum of 5×10^5 CFU/mL (from an early-log phase culture). Microtiter plates are incubated during 20 h at 35° C. and are read using a microtiterplate reader (Molecular Devices) at 650 nm as well as visual observation using a microtiter plate reading mirror.

| Compound | Levofloxacin MIC Against P. aeruginosa PAM1001 in Presence of Efflux Pump Inhibitor (EPI), Minimum Inhibitory Concentration (EPI Conc. 0 μg/mL (levofloxacin alone)) [µg/mL] | Levofloxacin MIC Against P. aeruginosa PAM1001 in Presence of Efflux Pump Inhibitor (EPI), Minimum Inhibitory Concentration (EPI Conc. 0.625 μg/mL) [µg/mL] | Levofloxacin MIC Against P. aeruginosa PAM1001 in Presence of Efflux Pump Inhibitor (EPI), Minimum Inhibitory Concentration (EPI Conc. 1.25 μg/mL) [µg/mL] | Levofloxacin MIC Against P. aeruginosa PAM1001 in Presence of Efflux Pump Inhibitor (EPI), Minimum Inhibitory Concentration (EPI Conc. 2.5 μg/mL) [µg/mL] | Levofloxacin MIC Against P. aeruginosa PAM1001 in Presence of Efflux Pump Inhibitor (EPI), Minimum Inhibitory Concentration (EPI Conc. 5 μg/mL) [µg/mL] | Levofloxacin MIC Against P. aeruginosa PAM1001 in Presence of Efflux Pump Inhibitor (EPI), Minimum Inhibitory Concentration (EPI Conc. 10 μg/mL) [µg/mL] | Levofloxacin MIC Against P. aeruginosa PAM1001 in Presence of Efflux Pump Inhibitor (EPI), Minimum Inhibitory Concentration (EPI Conc. 20 μg/mL) [µg/mL] | Levofloxacin MIC Against P. aeruginosa PAM1001 in Presence of Efflux Pump Inhibitor (EPI), Minimum Inhibitory Concentration (EPI Conc. 40 μg/mL) [µg/mL] | MIC (Pseudomonas aeruginosa, PAM1001, read-out: MIC of levofloxacin against P. aeruginosa PAM1001) [µg/mL] |
| --- | --- | --- | --- | --- | --- | --- | --- | --- | --- |
| NCCC[C@@H](N)C(=O)N[C@H](CCc1ccccc1)C(O)c1nc2ncccc2o1.O=C(O)C(F)(F)F (mixture of isomers) [Compound 36, (2R)-2,5-Diamino-N-[(1R)-1-[(RS)-(1-oxazolo[4,5-b]pyridin-2-yl)-hydroxymethyl]-3-phenylpropyl]valeramide Trifluoroacetate] | 4 | 4 | 4 | 4 | 4 | 4 | 2 | 2 |  |
| C[C@H]1COc2c(N3CCN(C)CC3)c(F)cc3c(=O)c(C(=O)O)cn1c23 [levofloxacin, reference compound] |  |  |  |  |  |  |  |  | 4 |
